Test results: ChEMBL document CHEMBL6153132 (J Med Chem, 2025)
Activity calls are given as the source filed them. The rule behind the calls is not given here.

How the values were obtained:
[1] = Metabolic stability in human liver microsome assessed as half life; assay type: ADME, microsomes; settings: microsomes
[2] = Metabolic stability in human liver microsome assessed as intrinsic clearance; assay type: ADME; settings: microsomes
[3] = Lipophilicity, logD of compound at pH 7.4; assay type: physicochemical; settings: buffer
[4] = target: T1, Interstitial collagenase (Homo sapiens) (UniProt P03956); test: Inhibition of MMP1 (unknown origin) at 10 uM relative to control
T1 sequence (whole entry): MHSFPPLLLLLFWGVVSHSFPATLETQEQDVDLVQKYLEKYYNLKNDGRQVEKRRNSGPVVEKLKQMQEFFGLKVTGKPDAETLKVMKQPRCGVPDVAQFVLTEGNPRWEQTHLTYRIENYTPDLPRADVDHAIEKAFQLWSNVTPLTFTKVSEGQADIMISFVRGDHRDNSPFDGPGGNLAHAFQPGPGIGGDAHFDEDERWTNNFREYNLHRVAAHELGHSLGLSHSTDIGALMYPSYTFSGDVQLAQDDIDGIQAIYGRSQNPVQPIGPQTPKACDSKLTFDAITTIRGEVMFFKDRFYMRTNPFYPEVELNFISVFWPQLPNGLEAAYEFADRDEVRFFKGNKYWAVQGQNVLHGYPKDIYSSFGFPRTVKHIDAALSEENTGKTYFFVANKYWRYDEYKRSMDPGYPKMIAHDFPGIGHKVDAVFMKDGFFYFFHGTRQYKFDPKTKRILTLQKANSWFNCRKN

[5] = target: 72 kDa type IV collagenase (Homo sapiens) (UniProt P08253); test: Inhibition of MMP2 (unknown origin) at 10 uM relative to control
72 kDa type IV collagenase (Homo sapiens), sequence (P08253 110-660 limits assumed): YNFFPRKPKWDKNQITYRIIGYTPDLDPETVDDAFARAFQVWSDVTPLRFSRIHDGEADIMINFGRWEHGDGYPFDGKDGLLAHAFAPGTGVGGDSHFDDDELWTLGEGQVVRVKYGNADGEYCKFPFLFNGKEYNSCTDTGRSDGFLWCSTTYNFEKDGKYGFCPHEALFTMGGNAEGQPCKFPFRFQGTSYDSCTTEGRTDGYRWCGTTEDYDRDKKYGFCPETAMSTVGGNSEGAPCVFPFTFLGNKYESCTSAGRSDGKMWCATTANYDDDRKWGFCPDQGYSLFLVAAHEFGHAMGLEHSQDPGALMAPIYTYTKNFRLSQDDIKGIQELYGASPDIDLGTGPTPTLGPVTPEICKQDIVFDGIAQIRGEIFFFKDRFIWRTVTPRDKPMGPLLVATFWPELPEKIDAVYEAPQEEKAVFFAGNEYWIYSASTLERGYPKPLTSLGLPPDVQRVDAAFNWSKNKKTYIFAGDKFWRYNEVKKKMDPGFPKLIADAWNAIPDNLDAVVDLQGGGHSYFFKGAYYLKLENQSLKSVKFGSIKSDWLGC

[6] = target: Stromelysin-1 (Homo sapiens) (UniProt P08254); test: Inhibition of MMP3 (unknown origin) at 10 uM relative to control
Stromelysin-1 (Homo sapiens), sequence (P08254 100-477 limits assumed): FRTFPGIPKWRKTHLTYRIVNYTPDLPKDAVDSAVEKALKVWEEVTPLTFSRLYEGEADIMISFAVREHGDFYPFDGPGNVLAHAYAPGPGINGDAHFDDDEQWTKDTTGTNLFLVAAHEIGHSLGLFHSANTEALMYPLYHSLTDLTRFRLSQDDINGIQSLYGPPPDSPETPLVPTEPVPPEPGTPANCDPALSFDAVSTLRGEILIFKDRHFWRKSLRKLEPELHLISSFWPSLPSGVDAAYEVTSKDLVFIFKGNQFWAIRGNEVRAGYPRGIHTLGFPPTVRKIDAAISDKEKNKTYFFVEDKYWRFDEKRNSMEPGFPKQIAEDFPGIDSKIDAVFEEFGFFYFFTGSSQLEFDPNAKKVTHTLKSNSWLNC

[7] = target: Matrix metalloproteinase-9 (Homo sapiens) (UniProt P14780); test: Inhibition of MMP9 (unknown origin) at 10 uM relative to control
Matrix metalloproteinase-9 (Homo sapiens), sequence (P14780 whole entry): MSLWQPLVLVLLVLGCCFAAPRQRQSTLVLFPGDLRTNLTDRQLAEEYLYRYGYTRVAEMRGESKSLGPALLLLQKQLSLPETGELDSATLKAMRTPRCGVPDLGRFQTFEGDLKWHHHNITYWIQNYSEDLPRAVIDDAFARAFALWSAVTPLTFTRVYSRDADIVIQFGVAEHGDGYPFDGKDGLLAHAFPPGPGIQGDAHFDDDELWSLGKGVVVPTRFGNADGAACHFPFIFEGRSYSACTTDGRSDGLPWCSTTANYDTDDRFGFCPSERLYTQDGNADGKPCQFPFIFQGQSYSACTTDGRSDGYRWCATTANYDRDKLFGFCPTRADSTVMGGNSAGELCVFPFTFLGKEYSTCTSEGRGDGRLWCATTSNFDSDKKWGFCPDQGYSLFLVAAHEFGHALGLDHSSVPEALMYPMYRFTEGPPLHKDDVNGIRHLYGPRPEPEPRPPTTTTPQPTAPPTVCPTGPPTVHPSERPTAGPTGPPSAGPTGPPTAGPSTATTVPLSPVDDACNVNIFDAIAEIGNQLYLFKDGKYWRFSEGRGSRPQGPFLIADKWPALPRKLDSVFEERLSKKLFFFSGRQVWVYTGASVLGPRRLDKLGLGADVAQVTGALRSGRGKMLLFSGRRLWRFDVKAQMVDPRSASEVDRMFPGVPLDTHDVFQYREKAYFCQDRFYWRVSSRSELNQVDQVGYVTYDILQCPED

[8] = target: Collagenase 3 (Homo sapiens) (UniProt P45452); test: Inhibition of MMP13 (unknown origin) at 10 uM relative to control
[9] = target: Glutaminyl-peptide cyclotransferase (Homo sapiens) (UniProt Q16769); test: Inhibition of glutaminyl cyclase (unknown origin) at 10 uM relative to control
Glutaminyl-peptide cyclotransferase (Homo sapiens), sequence (Q16769 29-361 limits assumed): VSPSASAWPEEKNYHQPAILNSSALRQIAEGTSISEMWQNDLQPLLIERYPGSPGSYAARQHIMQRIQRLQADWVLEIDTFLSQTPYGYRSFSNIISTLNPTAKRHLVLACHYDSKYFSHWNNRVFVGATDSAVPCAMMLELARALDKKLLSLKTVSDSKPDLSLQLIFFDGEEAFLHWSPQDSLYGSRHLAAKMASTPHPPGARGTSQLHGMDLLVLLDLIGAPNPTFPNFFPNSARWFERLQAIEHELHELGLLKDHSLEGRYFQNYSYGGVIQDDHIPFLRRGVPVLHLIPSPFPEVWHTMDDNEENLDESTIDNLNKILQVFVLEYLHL

[10] = test system: A2780; test: Induction of cell cycle arrest in human A2780 cells assessed as increase in accumulation of cells at subG1 phase; assay type: functional, cell-based
[11] = test system: A2780; test: Induction of cell cycle arrest in human A2780 cells assessed as increase in accumulation of cells at subG1 phase 0.5 to 1 uM; assay type: functional, cell-based; settings: dose 0.5-1 µM
[12] = test system: CAL-27; test: Induction of DNA damage in human CAL-27 cells assessed as gamma-H2AX accumulation at 0.5 uM by Western blot analysis; assay type: functional, cell-based
[13] = test system: Cal27CisR; test: Induction of DNA damage in human Cal27CisR cells assessed as gamma-H2AX accumulation at 0.5 uM by Western blot analysis; assay type: functional, cell-based
[14] = test system: CAL-27; test: Induction of DNA damage in human CAL-27 cells assessed as gamma-H2AX accumulation at 0.5 uM in presence of cisplatin by Western blot analysis; assay type: functional, cell-based
[15] = test system: Cal27CisR; test: Induction of DNA damage in human Cal27CisR cells assessed as gamma-H2AX accumulation at 0.5 uM in presence of cisplatin by Western blot analysis; assay type: functional, cell-based
[16] = test system: CAL-27; test: Anti-apoptotic activity in human CAL-27 cells assessed as increase in BCL-2 expression at 0.5 uM incubated for 48 hrs by Western blot analysis; assay type: functional, cell-based
[17] = test system: CAL-27; test: Anti-apoptotic activity in human CAL-27 cells assessed as increase in BCL-2 expression at 0.5 uM incubated for 48 hrs in presence of cisplatin by Western blot analysis; assay type: functional, cell-based
[18] = test system: CAL-27; test: Anti-apoptotic activity in human CAL-27 cells assessed as increase in survivin expression at 0.5 uM incubated for 48 hrs by Western blot analysis; assay type: functional, cell-based
[19] = test system: CAL-27; test: Anti-apoptotic activity in human CAL-27 cells assessed as increase in survivin expression at 0.5 uM incubated for 48 hrs in presence of cisplatin by Western blot analysis; assay type: functional, cell-based
[20] = test system: CAL-27; test: Induction of apoptosis in human CAL-27 cells assessed as increase in BIM expression at 0.5 uM incubated for 48 hrs by Western blot analysis; assay type: functional, cell-based
[21] = test system: CAL-27; test: Induction of apoptosis in human CAL-27 cells assessed as increase in BIM expression at 0.5 uM incubated for 48 hrs in presence of cisplatin by Western blot analysis; assay type: functional, cell-based
[22] = test system: CAL-27; test: cells; settings: Homo sapiens, CAL-27, 72 h
[23] = cells; settings: Homo sapiens, Cal27CisR, 72 h
[24] = cells; settings: Homo sapiens, Cal27CisR
[25] = test system: A2780; test: cells; settings: Homo sapiens
[26] = test system: A2780cisR; test: cells; settings: Homo sapiens
[27] = test system: HL-60; test: cells; settings: Homo sapiens, HL-60, 72 h
Description: Cytotoxicity against human HL-60 cells assessed as cell viability incubated for 72 hrs by MTT assay

CCNNC(=O)c1ccc(CN(CC(=O)NCc2ccccc2)C(=O)c2ccc(N(C)C)cc2)cc1
t1/2 [1]: 33.93 min | CLH [2]: 40.9 µL/min/mg | logD [3]: 2.69 | inhibition [4]: inactive | inhibition [5]: inactive | inhibition [6]: inactive | inhibition [7]: inactive | inhibition [8]: inactive | inhibition [9]: inactive | Activity [10]: Active | Activity [11]: Active | Activity [12]: Active | Activity [13]: Active | Activity [14]: Active | Activity [15]: Active | Activity [16]: Active | Activity [17]: Active | Activity [18]: Active | Activity [19]: Active | Activity [20]: Active | Activity [21]: Active | IC50 [22]: 1470 nM | IC50 [23]: 2230 nM | IC50 [24]: 16500 nM | IC50 [25]: 3500 nM | IC50 [26]: 16000 nM | IC50 [27]: 969 nM
